± gives the expanded uncertainty stated by the source.
Columns and labels:
[1] = refractive index (Na D-line) (dimensionless); settings: 298.15 K; 101.33 kPa; Liquid; Standard Abbe refractometry
[2] = 298.15 K; 101.33 kPa; Liquid

refractive index [1]	mass density [2] [kg/m3]	Compound
1.35941 ± 0.00068	–	CCO [ethanol]
–	786.46 ± 0.26	CO [methanol]

Reference: the NIST ThermoML archive (doi:10.1021/je0602521)
